From ChEMBL document CHEMBL4184135, “Waspergillamide A, a Nitro depsi-Tetrapeptide Diketopiperazine from an Australian Mud Dauber Wasp-Associated Aspergillus sp. (CMB-W031)” (J Nat Prod, 2017)
The source made the active and inactive calls.

Columns and labels:
[1] = tested on: KB 3-1; test: Cytotoxicity against human KB-3-1 cells assessed as inhibition of cell growth at 10 nM to 30 uM incubated for 72 hrs by MTT assay; format: functional, cell-based
[2] = tested on: SW-620; test: Cytotoxicity against human SW620 cells assessed as inhibition of cell growth at 10 nM to 30 uM incubated for 72 hrs by MTT assay; format: functional, cell-based
[3] = tested on: Escherichia coli; test: Antimicrobial activity against Escherichia coli ATCC 25922 assessed as inhibition of microbial growth at 0.125 to 32 ug/mL incubated for 24 hrs by broth micro-dilution method; format: functional, organism-based
[4] = tested on: Staphylococcus aureus; test: Antimicrobial activity against Staphylococcus aureus ATCC 25923 assessed as inhibition of microbial growth at 0.125 to 32 ug/mL incubated for 24 hrs by broth micro-dilution method; format: functional, organism-based
[5] = tested on: Pseudomonas aeruginosa; test: Antimicrobial activity against Pseudomonas aeruginosa ATCC 27853 assessed as inhibition of microbial growth at 0.125 to 32 ug/mL incubated for 24 hrs by broth micro-dilution method; format: functional, organism-based
[6] = tested on: NCI-H460; test: Cytotoxicity against human NCI-H460 cells assessed as inhibition of cell growth at 10 nM to 30 uM incubated for 72 hrs by MTT assay; format: functional, cell-based

Measured: growth inhibition (GI)

CC(C)/C=C1\NC(=O)[C@@H](C(C)(C)OC(=O)CNC(=O)c2ccc([N+](=O)[O-])cc2)NC1=O
inactive: all assays above
